Measured values taken from US9630922B2, “3-spiro-7-hydroxamic acid tetralins as HDAC inhibitors” (Forma Therapeutics, Inc., priority 2015, dated 2017).

Molecular target: T1, HDAC6 (Homo sapiens, UniProt Q9UBN7)
T1 construct: Full length human recombinant HDAC6 protein was expressed in baculoviral system; made in house; host or cells: baculoviral system
T1 sequence (Q9UBN7 1-1215): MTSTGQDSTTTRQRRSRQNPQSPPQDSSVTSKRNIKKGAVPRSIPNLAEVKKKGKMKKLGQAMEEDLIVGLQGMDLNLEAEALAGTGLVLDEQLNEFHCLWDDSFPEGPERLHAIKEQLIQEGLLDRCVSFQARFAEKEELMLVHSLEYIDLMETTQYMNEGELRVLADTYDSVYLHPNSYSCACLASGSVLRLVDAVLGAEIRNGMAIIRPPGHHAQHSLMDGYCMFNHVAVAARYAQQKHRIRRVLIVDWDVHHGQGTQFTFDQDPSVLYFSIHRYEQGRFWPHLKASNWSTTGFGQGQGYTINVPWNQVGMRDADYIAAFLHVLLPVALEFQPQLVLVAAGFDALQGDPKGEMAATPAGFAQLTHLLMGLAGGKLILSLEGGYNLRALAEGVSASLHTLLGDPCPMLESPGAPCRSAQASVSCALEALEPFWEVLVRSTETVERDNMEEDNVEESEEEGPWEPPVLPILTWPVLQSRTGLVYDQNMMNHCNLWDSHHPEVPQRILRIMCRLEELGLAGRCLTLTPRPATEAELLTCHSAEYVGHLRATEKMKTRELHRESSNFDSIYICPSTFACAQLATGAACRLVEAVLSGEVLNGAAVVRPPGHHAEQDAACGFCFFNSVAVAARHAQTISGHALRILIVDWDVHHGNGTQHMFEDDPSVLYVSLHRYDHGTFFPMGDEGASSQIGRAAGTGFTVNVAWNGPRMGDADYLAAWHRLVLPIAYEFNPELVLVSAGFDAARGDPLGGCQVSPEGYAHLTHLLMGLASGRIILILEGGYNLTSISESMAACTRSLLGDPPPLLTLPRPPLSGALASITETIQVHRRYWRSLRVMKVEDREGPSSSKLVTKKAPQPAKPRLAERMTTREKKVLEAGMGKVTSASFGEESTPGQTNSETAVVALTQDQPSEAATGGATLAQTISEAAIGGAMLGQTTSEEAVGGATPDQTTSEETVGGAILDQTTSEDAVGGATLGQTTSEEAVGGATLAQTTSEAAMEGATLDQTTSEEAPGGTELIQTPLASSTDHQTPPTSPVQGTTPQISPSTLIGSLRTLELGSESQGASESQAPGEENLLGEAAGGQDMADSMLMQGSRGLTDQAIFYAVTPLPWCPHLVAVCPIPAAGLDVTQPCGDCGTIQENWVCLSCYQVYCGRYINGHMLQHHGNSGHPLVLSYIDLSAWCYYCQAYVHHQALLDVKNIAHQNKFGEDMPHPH
Experiment: In vitro Histone Deacetylase Assay (enzymatic HDAC6 electrophoretic mobility shift assay)
Format: biochemical
Conditions: full length human recombinant HDAC6, 1 nM enzyme, 2 μM peptide substrate RHKK(Ac)-NH2, 25° C.; read-out: HDAC6 activity range
Summary of the method: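 Full-length recombinant human HDAC6 (baculovirus-expressed, 1 nM) was incubated at 25 °C with 2 μM fluorescent RHKK(Ac)-NH2 peptide in HEPES pH 7.5, KCl, BSA, Triton X-100 and 1% DMSO, then SDS-quenched. Substrate and product were separated by microfluidic mobility shift, and IC50 came from 4-parameter fits of 12-point, 3-fold dilution curves.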

SMILES | IC50
O=C(NO)c1ccc2c(c1)CC[C@@]1(CCN(Cc3cc(Cl)ccc3Cl)C1=O)C2 [Compound I-74, (S)-1′-(2,5-dichlorobenzyl)-N-hydroxy-2′-oxo-3,4-dihydro-1H-spiro[naphthalene-2,3′-pyrrolidine]-6-carboxamide] | 100 to 500 nM
O=C(NO)c1ccc2c(c1)CC[C@@]1(CCN(Cc3c(Cl)cccc3Cl)C1=O)C2 [Compound I-75, (S)-1′-(2,6-dichlorobenzyl)-N-hydroxy-2′-oxo-3,4-dihydro-1H-spiro[naphthalene-2,3′-pyrrolidine]-6-carboxamide] | 100 to 500 nM
O=C(NO)c1ccc2c(c1)CC[C@@]1(CCN(Cc3ccc(OC(F)(F)F)cc3)C1=O)C2 [Compound I-80, (S)-N-hydroxy-2′-oxo-1′-(4-(trifluoromethoxy)benzyl)-3,4-dihydro-1H-spiro[naphthalene-2,3′-pyrrolidine]-6-carboxamide] | 100 to 500 nM
COc1ccc(CN2CC[C@@]3(CCc4cc(C(=O)NO)ccc4C3)C2=O)cc1 [Compound I-83, (S)-N-hydroxy-1′-(4-methoxybenzyl)-2′-oxo-3,4-dihydro-1H-spiro[naphthalene-2,3′-pyrrolidine]-6-carboxamide] | ≤ 100 nM
O=C(NO)c1ccc2c(c1)CC[C@@]1(CCN(Cc3ccccc3F)C1=O)C2 [Compound I-84, (S)-1′-(2-fluorobenzyl)-N-hydroxy-2′-oxo-3,4-dihydro-1H-spiro[naphthalene-2,3′-pyrrolidine]-6-carboxamide] | ≤ 100 nM
CC(C)(C)c1ccc(CN2CC[C@@]3(CCc4cc(C(=O)NO)ccc4C3)C2=O)cc1 [Compound I-85, (S)-1′-(4-(tert-butyl)benzyl)-N-hydroxy-2′-oxo-3,4-dihydro-1H-spiro[naphthalene-2,3′-pyrrolidine]-6-carboxamide] | 100 to 500 nM
O=C(NO)c1ccc2c(c1)CC[C@@]1(CCN(Cc3ccc4ccccc4c3)C1=O)C2 [Compound I-86, (S)-N-hydroxy-1′-(naphthalen-2-ylmethyl)-2′-oxo-3,4-dihydro-1H-spiro[naphthalene-2,3′-pyrrolidine]-6-carboxamide] | ≤ 100 nM
O=C(NO)c1ccc2c(c1)CC[C@@]1(CCN(Cc3ccccc3OC(F)F)C1=O)C2 [Compound I-87, (S)-1′-(2-(difluoromethoxy)benzyl)-N-hydroxy-2′-oxo-3,4-dihydro-1H-spiro[naphthalene-2,3′-pyrrolidine]-6-carboxamide] | ≤ 100 nM

Further lines, results first:

IC50 | SMILES
≤ 100 nM | O=C(NO)c1ccc2c(c1)CC[C@@]1(CCN(Cc3ccccc3)C1=O)C2 [Compound I-76, (S)-1′-benzyl-N-hydroxy-2′-oxo-3,4-dihydro-1H-spiro[naphthalene-2,3′-pyrrolidine]-6-carboxamide]
≤ 100 nM | COc1cccc(CN2CC[C@@]3(CCc4cc(C(=O)NO)ccc4C3)C2=O)c1 [Compound I-77, (S)-N-hydroxy-1′-(3-methoxybenzyl)-2′-oxo-3,4-dihydro-1H-spiro[naphthalene-2,3′-pyrrolidine]-6-carboxamide]
≤ 100 nM | O=C(NO)c1ccc2c(c1)CC[C@@]1(CCN(Cc3ccccn3)C1=O)C2 [Compound I-78, (S)-N-hydroxy-2′-oxo-1′-(pyridin-2-ylmethyl)-3,4-dihydro-1H-spiro[naphthalene-2,3′-pyrrolidine]-6-carboxamide]
≤ 100 nM | O=C(NO)c1ccc2c(c1)CC[C@@]1(CCN(Cc3cccc(F)c3)C1=O)C2 [Compound I-79, (S)-1′-(3-fluorobenzyl)-N-hydroxy-2′-oxo-3,4-dihydro-1H-spiro[naphthalene-2,3′-pyrrolidine]-6-carboxamide]
≤ 100 nM | O=C(NO)c1ccc2c(c1)CC[C@@]1(CCN(Cc3cccc(Cl)c3)C1=O)C2 [Compound I-81, (S)-1′-[(3-chlorophenyl)methyl]-N-hydroxy-2′-oxo-3,4-dihydro-1H-spiro[naphthalene-2,3′-pyrrolidine]-6-carboxamide]
≤ 100 nM | O=C(NO)c1ccc2c(c1)CC[C@@]1(CCN(Cc3ccc(Cl)cc3)C1=O)C2 [Compound I-82, (S)-1′-(4-chlorobenzyl)-N-hydroxy-2′-oxo-3,4-dihydro-1H-spiro[naphthalene-2,3′-pyrrolidine]-6-carboxamide]
